Consider seven compounds from ChEMBL document CHEMBL5131375, “Recent Developments in the Use of Kinase Inhibitors for Management of Viral Infections” (J Med Chem, 2022).

One data set has as its system Measles morbillivirus. It counts as functional.
A short description of data set [1]: in vitro. Particulars: human, pbl.
In the next data set the test system is Influenza A virus. Kind of data set: microbe, parasite or virus in culture. Format: functional, organism-based.
Data set [2] in a line: Cytotoxicity against human A549 cells. It counts as toxicity, cell-based.
For data set [3], the target named is Phosphatidylinositol 4-phosphate 3-kinase C2 domain-containing subunit beta (Homo sapiens, UniProt O00750). Briefly: Inhibition of PIK3C2beta (unknown origin).
Phosphatidylinositol 4-phosphate 3-kinase C2 domain-containing subunit beta, sequence (O00750 whole entry, the tested form may be a part): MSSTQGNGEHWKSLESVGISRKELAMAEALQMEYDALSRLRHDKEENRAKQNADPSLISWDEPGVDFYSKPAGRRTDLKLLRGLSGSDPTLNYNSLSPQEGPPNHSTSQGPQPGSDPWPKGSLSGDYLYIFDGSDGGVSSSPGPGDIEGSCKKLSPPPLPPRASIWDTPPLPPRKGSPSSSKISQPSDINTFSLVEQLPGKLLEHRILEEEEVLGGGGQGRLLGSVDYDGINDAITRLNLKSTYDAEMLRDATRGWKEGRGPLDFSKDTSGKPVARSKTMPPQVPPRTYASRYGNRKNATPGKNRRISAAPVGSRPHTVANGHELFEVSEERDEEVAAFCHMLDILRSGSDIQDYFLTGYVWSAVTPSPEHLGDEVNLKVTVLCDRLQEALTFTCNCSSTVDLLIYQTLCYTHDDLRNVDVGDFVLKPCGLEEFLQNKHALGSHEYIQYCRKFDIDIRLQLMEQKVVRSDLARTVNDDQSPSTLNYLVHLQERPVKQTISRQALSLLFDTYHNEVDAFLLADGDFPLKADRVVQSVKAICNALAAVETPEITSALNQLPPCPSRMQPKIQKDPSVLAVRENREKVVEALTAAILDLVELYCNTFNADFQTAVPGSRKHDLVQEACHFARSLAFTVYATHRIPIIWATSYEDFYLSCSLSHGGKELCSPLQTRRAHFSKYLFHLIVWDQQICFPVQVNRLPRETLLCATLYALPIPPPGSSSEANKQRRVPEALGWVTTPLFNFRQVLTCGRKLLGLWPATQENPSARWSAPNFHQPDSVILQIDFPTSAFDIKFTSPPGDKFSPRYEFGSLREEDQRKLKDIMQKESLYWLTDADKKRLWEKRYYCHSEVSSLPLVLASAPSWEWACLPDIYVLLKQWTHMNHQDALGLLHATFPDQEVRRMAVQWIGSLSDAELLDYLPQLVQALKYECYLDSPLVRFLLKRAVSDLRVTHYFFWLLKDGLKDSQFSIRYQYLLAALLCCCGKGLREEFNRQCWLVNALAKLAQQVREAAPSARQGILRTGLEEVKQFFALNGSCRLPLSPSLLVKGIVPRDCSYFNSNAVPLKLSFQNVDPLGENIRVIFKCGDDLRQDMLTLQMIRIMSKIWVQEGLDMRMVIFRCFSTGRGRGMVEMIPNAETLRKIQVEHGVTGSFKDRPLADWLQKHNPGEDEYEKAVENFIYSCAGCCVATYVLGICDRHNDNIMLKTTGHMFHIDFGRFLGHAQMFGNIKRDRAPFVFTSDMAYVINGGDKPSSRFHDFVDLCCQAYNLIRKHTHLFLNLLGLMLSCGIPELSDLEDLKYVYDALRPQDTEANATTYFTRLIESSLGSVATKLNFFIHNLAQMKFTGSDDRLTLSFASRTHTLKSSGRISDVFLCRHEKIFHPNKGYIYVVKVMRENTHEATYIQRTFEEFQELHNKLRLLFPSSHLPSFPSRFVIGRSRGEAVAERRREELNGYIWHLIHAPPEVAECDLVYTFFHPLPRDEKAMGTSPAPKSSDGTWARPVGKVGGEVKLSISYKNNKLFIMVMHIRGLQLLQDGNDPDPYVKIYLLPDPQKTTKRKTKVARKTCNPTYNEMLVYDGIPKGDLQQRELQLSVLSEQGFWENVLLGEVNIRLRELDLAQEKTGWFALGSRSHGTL
The test system of another data set is Influenza B virus. Kind of data set: Antiviral activity against influenza B virus. It counts as functional, organism-based.
The next data set concerns Human rhinovirus sp. Kind of data set: Antiviral activity against RV. It counts as functional, organism-based, Enterovirus.
Data set [4] concerns the target Epidermal growth factor receptor (Homo sapiens, UniProt P00533).
Data set [5] can be described thus: in vitro. Particulars: human, Huh-7 cells.
Data set [6] in a line: in vitro. Conditions: dog, MDCK cells.
Data set [7] concerns Hepatitis C virus. Kind of data set: microbe, parasite or virus in culture.
Data set [8] has as its target Calcium/calmodulin-dependent protein kinase type II subunit gamma (Homo sapiens, UniProt Q13555). Kind of data set: Inhibition of CAMK-II (unknown origin).
Data set [9] in a line: Cytotoxicity against HMC3 cells. Format: toxicity, cell-based. Particulars: human.
Data set [10] deals with Dengue virus. Kind of data set: Antiviral activity against DENV infected in HEK293 cells. Format: functional, organism-based.
The nature of data set [11]: Cytotoxicity against HEK293 cells. It counts as toxicity, cell-based. Particulars: human.
Data set [12] concerns Dengue virus. Briefly: microbe, parasite or virus in culture.
The subject of a further data set is Hepatitis B virus. Kind of data set: microbe, parasite or virus in culture. It counts as functional, organism-based.
Another data set concerns HepG2. Kind of data set: Cytotoxicity against human HepG2 cells at 1 uM. Format: toxicity, cell-based. Conditions: hepg2, 1 µM.
In another data set the test system is Zaire ebolavirus. Briefly: microbe, parasite or virus in culture. It counts as functional, organism-based.
In data set [13] the test system is Hepatitis C virus. Briefly: Antiviral activity against HCV assessed as fold reduction in virus titre at 10 uM. Format: functional, Hepacivirus hominis.
A short description of data set [14]: in vitro. Particulars: human, hek-293t.
The nature of data set [15]: Cytotoxicity against human LU cells. Format: toxicity, cell-based.
In another data set the test system is Human betaherpesvirus 5. Briefly: Antiviral activity against HCMV assessed as inhibition of DNA synthesis at 10 uM relative to control. It counts as functional.

Epidermal growth factor receptor, sequence (P00533 whole entry): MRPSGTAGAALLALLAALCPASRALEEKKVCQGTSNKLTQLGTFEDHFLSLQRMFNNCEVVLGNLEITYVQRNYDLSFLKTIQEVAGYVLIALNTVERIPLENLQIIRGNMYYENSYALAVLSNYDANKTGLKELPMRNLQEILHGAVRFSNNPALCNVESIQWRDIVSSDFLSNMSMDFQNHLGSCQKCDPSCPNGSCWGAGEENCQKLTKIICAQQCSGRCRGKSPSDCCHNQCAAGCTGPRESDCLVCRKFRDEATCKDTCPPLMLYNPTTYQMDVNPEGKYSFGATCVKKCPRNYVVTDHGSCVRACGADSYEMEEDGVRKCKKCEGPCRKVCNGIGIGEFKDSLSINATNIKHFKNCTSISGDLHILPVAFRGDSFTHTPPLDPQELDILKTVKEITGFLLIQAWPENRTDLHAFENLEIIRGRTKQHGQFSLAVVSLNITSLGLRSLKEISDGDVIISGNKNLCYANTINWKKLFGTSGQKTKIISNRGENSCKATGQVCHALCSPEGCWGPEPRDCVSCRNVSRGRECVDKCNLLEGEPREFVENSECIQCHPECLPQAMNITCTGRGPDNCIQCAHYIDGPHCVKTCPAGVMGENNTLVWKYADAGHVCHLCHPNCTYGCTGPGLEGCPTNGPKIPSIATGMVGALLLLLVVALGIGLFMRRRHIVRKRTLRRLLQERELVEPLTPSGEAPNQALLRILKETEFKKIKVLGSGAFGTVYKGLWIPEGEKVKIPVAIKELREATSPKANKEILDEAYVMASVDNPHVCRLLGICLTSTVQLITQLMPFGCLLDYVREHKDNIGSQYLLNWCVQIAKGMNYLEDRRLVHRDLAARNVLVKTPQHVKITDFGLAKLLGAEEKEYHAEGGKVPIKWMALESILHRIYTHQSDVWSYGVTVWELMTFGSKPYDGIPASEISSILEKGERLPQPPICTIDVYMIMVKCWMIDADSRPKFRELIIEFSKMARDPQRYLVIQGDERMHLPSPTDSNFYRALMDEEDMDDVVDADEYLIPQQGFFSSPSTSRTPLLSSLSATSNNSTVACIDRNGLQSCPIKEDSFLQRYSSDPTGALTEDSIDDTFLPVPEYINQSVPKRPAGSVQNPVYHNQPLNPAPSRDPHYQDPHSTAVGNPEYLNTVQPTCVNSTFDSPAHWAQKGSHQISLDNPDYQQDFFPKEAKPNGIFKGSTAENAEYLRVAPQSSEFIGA
Calcium/calmodulin-dependent protein kinase type II subunit gamma, sequence (Q13555 whole entry): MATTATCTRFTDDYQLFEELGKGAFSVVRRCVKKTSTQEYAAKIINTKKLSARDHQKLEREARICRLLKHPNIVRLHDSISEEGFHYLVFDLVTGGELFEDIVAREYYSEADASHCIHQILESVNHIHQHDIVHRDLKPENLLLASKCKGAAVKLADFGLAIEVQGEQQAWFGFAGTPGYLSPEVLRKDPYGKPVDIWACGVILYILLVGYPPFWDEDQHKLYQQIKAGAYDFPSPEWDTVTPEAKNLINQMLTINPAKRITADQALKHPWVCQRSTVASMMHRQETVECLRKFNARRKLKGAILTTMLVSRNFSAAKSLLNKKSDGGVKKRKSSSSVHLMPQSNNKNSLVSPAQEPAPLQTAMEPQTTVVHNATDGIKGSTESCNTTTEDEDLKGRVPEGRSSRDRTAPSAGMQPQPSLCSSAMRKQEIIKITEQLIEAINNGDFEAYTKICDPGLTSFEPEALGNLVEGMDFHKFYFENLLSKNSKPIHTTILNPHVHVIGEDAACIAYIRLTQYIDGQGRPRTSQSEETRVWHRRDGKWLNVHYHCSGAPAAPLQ

Consider `Oc1ccc(Nc2nc(-c3ccc(Cl)cc3)cs2)cc1`, for which the “inhibition (INH)” value with Measles morbillivirus is 70%. For the same compound, the CC50 in the data set “in vitro [1]” is over 5 µM.

A word on the EC50: it is the concentration at which the effect is half-maximal. The term IC50 denotes the concentration needed to halve the response being measured. As to `O=C(Cc1cccs1)Nc1cccc(-c2ccc3nnc(-c4cccnc4)n3n2)c1`, the EC50 in the data set on Influenza A virus is 0.35 µM; with Influenza B virus, 0.4 µM; in the data set with Human rhinovirus sp., 0.05 µM; in the data set on Hepatitis C virus [7] it was 0.76 µM. Also, the CC50 (in data set [2]; in “in vitro [5]”; in the data set “in vitro [6]”) was over 50 µM throughout. Further, the figures for the IC50 in data set [3] and in data set [4] were 0.43 µM and 0.079 µM, respectively.

For the compound `COc1ccc(S(=O)(=O)N(CCCC(=O)C2CCCCCC2)c2ccccc2)cc1`, the IC50 in [8] came to 0.79 µM. This compound showed a CC50 in data set [9] of over 12.5 µM.

In the case of `O=S(=O)(NCCNC/C=C/c1ccc(Br)cc1)c1cccc2cnccc12`, the IC50 came to 0.9 µM in the data set with Dengue virus [10] and 0.96 µM in the data set on Dengue virus [12]. Besides, in data set [11], the CC50 was over 1 µM.

Regarding `Cc1n[nH]c2ccc(-c3cncc(OC[C@@H](N)Cc4c[nH]c5ccccc45)c3)cc12` [A-443654], the “inhibition (INH)” value in the data set on Hepatitis B virus is listed as 50%. Also, the Activity result with HepG2 is reported as “Non-Toxic”.

`O=c1cc(N2CCOCC2)oc2c(-c3ccccc3)cccc12` [LY-294002] displayed an EC50 in the data set with Zaire ebolavirus of 1.8 µM. The “fold change (FC)” value with Hepatitis C virus [13] turned out to be 5. In the data set “in vitro [14]”, this compound came in with a CC50 of over 20 µM.

By inhibition is commonly meant the percentage by which the read-out fell short of the control. The compound `Cn1cnc2c(NCc3ccccc3)nc(NCCO)nc21` [OLOMOUCINE] gave a CC50 in [15] of over 15 µM. Besides, in the data set with Human betaherpesvirus 5, the inhibition at 10 µM was determined as 50%.
